Assay results published in US10266526B2, “Substituted 1,2,3-triazoles as SMYD inhibitors for treating cancer” (EPIZYME, INC., priority 2014, dated 2019).

These molecules were tested against SMYD2 (Homo sapiens (Human), UniProt Q9NRG4) (assay: SMYD2 biochemical assay (SMYD2 enzyme assay on peptide substrate, 3H-SAM Flashplate)). Conditions: not given.
Sequence of SMYD2 (Q9NRG4 whole entry): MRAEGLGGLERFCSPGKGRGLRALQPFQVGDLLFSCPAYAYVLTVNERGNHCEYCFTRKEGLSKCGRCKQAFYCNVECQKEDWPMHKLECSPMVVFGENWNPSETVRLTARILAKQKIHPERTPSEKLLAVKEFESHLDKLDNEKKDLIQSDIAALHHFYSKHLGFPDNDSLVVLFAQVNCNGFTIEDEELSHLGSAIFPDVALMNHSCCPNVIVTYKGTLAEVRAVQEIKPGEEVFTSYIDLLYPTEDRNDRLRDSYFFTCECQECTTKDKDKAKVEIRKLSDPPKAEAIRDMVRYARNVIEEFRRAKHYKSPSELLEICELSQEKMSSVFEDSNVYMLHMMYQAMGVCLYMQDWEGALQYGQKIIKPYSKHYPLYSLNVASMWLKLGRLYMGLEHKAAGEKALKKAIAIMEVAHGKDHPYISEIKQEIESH

First: C[C@H](c1ccccc1)N1C[C@@H](NC(=O)c2cn(C3CC3)nn2)C1(C)C (racemic) [compound 984, rac-1-cyclopropyl-N-((R)-2,2-dimethyl-1-((R)-1-phenylethyl)azetidin-3-yl)-1H-1,2,3-triazole-4-carboxamide]
Second: C[C@@H](c1ccccc1)N1C[C@@H](NC(=O)c2cn(C3CC3)nn2)C1(C)C (racemic) [compound 1026, rac-1-cyclopropyl-N-((R)-2,2-dimethyl-1-((S)-1-phenylethyl)azetidin-3-yl)-1H-1,2,3-triazole-4-carboxamide]
The IC50 of the first is 21-fold higher: 18900 nM for the first, 910 nM for the second.

`C[C@H](c1cccc(OCCO)c1Cl)N1CC(NC(=O)c2cn(C3CC3)nn2)C1` (single isomer, unassigned) [compound 832] gave an IC50 of 14300 nM.

Same assay, conditions: SMYD2 Biochem IC50, IC50 values are an average of n = 1 to n = 50

First: C[C@@H](c1ccc(OCc2ccccc2)cc1)N1CC(NC(=O)c2cn(C3CC3)nn2)C1 (single isomer, unassigned) [compound 778]
Second: C[C@H](c1ccc(OCc2ccccc2)cc1)N1CC(NC(=O)c2cn(C3CC3)nn2)C1 (single isomer, unassigned) [compound 788]
The IC50 of the first is 4.9-fold lower: 84.5 nM for the first, 414 nM for the second. The first is the more potent here.

Same assay, conditions: read-out: SMYD2 Biochem IC50; IC50 values are an average of n = 1 to n = 50

First: C[C@@H](c1cccc(OCCO)c1Cl)N1CC(NC(=O)c2cn(C3CC3)nn2)C1 (single isomer, unassigned) [compound 831]
Second: CC(c1cc(Cl)ccc1Cl)N1CC(NC(=O)c2cc(C3CC3)cnn2)C1 (stereo not drawn) [compound 649, 5-cyclopropyl-N-{1-[1-(2,5-dichlorophenyl)ethyl]azetidin-3-yl}pyridazine-3-carboxamide]
The IC50 of the first is 2.4-fold lower: 57.8 nM for the first, 140 nM for the second. The first is the more potent here.

`CC(C)N1CC(NC(=O)c2cc(C3CC3)cnn2)C1` [compound 645, 5-cyclopropyl-N-[1-(propan-2-yl)azetidin-3-yl]pyridazine-3-carboxamide] and `C[C@@H](c1ccccc1)N1CC(NC(=O)c2cc(C3CC3)cnn2)C1` [compound 646, 5-cyclopropyl-N-{1-[(1S)-1-phenylethyl]azetidin-3-yl}pyridazine-3-carboxamide] are within 1.5-fold of each other in IC50: 745 nM for the first, 516 nM for the second.

`C[C@H](c1ccccc1)N1CC(NC(=O)c2cc(C3CC3)cnn2)C1` [compound 647, 5-cyclopropyl-N-{1-[(1R)-1-phenylethyl]azetidin-3-yl}pyridazine-3-carboxamide] and `Cn1cnc(CN2CC(NC(=O)c3cc(C4CC4)cnn3)C2)c1Cl` [compound 648, N-{1-[(5-chloro-1-methyl-1H-imidazol-4-yl)methyl]azetidin-3-yl}-5-cyclopropylpyridazine-3-carboxamide] are within 1.5-fold of each other in IC50: 7800 nM for the first, 7330 nM for the second.

These molecules were tested against SMYD3 (Homo sapiens (Human), UniProt Q9H7B4) (assay: SMYD3 biochemical assay (SMYD3 enzyme assay on MEKK2 protein substrate, 3H-SAM scintillation proximity assay)). Conditions: Table 1A; average of n = 1 to n = 50; read-out: SMYD3 Biochem IC50.
Summary of the method: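 Detection used scintillation proximity beads to capture ³H-methylated GST-MEKK2 after quench with 100 uM final cold SAM. The reaction was started by SAM/MEKK2 addition after a 30 min RT compound–enzyme preincubation. Enzyme was tag-free full-length human SMYD3 from E. coli, in buffer of 25 mM Tris-Cl pH 8.0, 1 mM TCEP, 0.005% BSG, 0.005% Tween 20.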

Sequence of SMYD3 (Q9H7B4 whole entry): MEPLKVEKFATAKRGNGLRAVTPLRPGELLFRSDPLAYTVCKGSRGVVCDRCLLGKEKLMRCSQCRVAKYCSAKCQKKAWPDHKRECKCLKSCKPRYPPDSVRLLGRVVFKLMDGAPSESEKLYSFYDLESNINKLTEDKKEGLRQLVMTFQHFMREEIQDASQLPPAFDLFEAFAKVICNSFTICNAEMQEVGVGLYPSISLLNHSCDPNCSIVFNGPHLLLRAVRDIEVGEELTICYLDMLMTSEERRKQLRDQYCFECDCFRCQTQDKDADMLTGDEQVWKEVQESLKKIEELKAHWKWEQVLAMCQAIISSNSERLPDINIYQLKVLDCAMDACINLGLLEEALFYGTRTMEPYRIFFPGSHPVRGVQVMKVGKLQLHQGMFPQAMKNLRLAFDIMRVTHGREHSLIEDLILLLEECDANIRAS

`Cc1[nH]cnc1C(=O)N[C@H]1CC[C@H](N)CC1` [compound 542, N-((1r,4r)-4-aminocyclohexyl)-5-methyl-1H-imidazole-4-carboxamide] and `Cc1c[nH]c(C(=O)N[C@H]2CC[C@H](N)CC2)n1` [compound 562, N-((1r,4r)-4-aminocyclohexyl)-4-methyl-1H-imidazole-2-carboxamide] cannot be ordered by IC50: > 50 µM for the first, > 10 µM for the second.

Going from `Cc1nnc(C(=O)N[C@H]2CC[C@H](NC(=O)CCN)CC2)[nH]1` [compound 543, N-((1r,4r)-4-(3-aminopropanamido)cyclohexyl)-5-methyl-4H-1,2,4-triazole-3-carboxamide] to `CCc1cnc(C(=O)N[C@H]2CC[C@H](NC(=O)CCN)CC2)s1` [compound 553, N-((1r,4r)-4-(3-aminopropanamido)cyclohexyl)-5-ethylthiazole-2-carboxamide], the IC50 falls from > 50 µM to 25.6 µM.

Compared with `Cn1cnc(C(=O)N[C@H]2CC[C@H](N)CC2)n1` [compound 544, N-((1r,4r)-4-aminocyclohexyl)-1-methyl-1H-1,2,4-triazole-3-carboxamide], `Cc1nc(C(=O)N[C@H]2CC[C@H](N)CC2)n[nH]1` [compound 550, N-((1r,4r)-4-aminocyclohexyl)-5-methyl-1H-1,2,4-triazole-3-carboxamide] is lower in IC50: > 50 µM for the first, 14.7 µM for the second.

`N[C@H]1CC[C@H](NC(=O)c2cc(Cl)[nH]n2)CC1` [compound 545, N-((1r,4r)-4-aminocyclohexyl)-5-chloro-1H-pyrazole-3-carboxamide] and `Nc1nc(C(=O)N[C@H]2CC[C@H](N)CC2)c[nH]1` [compound 572, 2-amino-N-((1r,4r)-4-aminocyclohexyl)-1H-imidazole-4-carboxamide] cannot be ordered by IC50: > 50 µM for the first, > 10 µM for the second.

Going from `CC(NC(=O)c1n[nH]c(=O)[nH]1)C1CCN(C(=O)[C@H](C)N)CC1` (stereo partly drawn) [compound 546, N-(1-(1-(L-alanyl)piperidin-4-yl)ethyl)-5-oxo-4,5-dihydro-1H-1,2,4-triazole-3-carboxamide] to `Cc1n[nH]c(C(=O)NC(C)C2CCN(C(=O)[C@H](C)N)CC2)n1` (stereo partly drawn) [compound 549, N-(1-(1-(L-alanyl)piperidin-4-yl)ethyl)-3-methyl-1H-1,2,4-triazole-5-carboxamide], the IC50 rises from 9.76 µM to > 50 µM.

`O=C(NC1CCN(C(=O)CC2CCNCC2)CC1)c1nnc[nH]1` [compound 547, N-(1-(2-(piperidin-4-yl)acetyl)piperidin-4-yl)-4H-1,2,4-triazole-3-carboxamide] and `N[C@H]1CC[C@H](C(=O)N2CCC(NC(=O)c3nnc[nH]3)CC2)CC1` [compound 555, N-(1-((1r,4r)-4-aminocyclohexane-1-carbonyl)piperidin-4-yl)-4H-1,2,4-triazole-3-carboxamide] cannot be ordered by IC50: > 50 µM for the first, > 50 µM for the second.

`N[C@H]1CC[C@H](NC(=O)c2nc(I)n[nH]2)CC1` [compound 548, N-((1r,4r)-4-aminocyclohexyl)-3-iodo-1H-1,2,4-triazole-5-carboxamide] and `CCc1cnc(C(=O)N[C@H]2CC[C@H](N)CC2)s1` [compound 554, N-((1r,4r)-4-aminocyclohexyl)-5-ethylthiazole-2-carboxamide] cannot be ordered by IC50: > 50 µM for the first, > 50 µM for the second.

Compared with `CC(NC(=O)c1nc2ccncc2s1)C1CCN(C(=O)[C@H](C)N)CC1` (stereo partly drawn) [compound 551, N-(1-(1-(L-alanyl)piperidin-4-yl)ethyl)thiazolo[5,4-c]pyridine-2-carboxamide], `CCc1cnc(C(=O)NC(C)C2CCN(C(=O)[C@H](C)N)CC2)s1` (stereo partly drawn) [compound 552, N-(1-(1-(L-alanyl)piperidin-4-yl)ethyl)-5-ethylthiazole-2-carboxamide] is lower in IC50: > 50 µM for the first, 6.44 µM for the second. The second is the more potent here.

`NCCC(=O)N1CCC(NC(=O)c2nnc[nH]2)CC1` [compound 556, N-(1-(3-aminopropanoyl)piperidin-4-yl)-4H-1,2,4-triazole-3-carboxamide] and `NCCC(=O)N[C@H]1CC[C@H](NC(=O)c2cc3cc(Br)ccc3nc2O)CC1` [compound 566, N-((1r,4r)-4-(3-aminopropanamido)cyclohexyl)-6-bromo-2-hydroxyquinoline-3-carboxamide] cannot be ordered by IC50: > 50 µM for the first, > 10 µM for the second.

Going from `N[C@H]1CC[C@H](NC(=O)c2cc3c(cn2)NC(=O)C3)CC1` [compound 559, N-((1r,4r)-4-aminocyclohexyl)-2-oxo-2,3-dihydro-1H-pyrrolo[2,3-c]pyridine-5-carboxamide] to `N[C@H]1CC[C@H](NC(=O)c2cnc3ncccn23)CC1` [compound 574, N-((1r,4r)-4-aminocyclohexyl)imidazo[1,2-a]pyrimidine-3-carboxamide], the IC50 rises from 3.49 µM to > 10 µM.

`CN(C(=O)c1ncn[nH]1)[C@H]1CC[C@H](N)CC1` [compound 561, N-((1r,4r)-4-aminocyclohexyl)-N-methyl-1H-1,2,4-triazole-5-carboxamide] and `N[C@H]1CC[C@H](NC(=O)c2cc3cc(Br)ccc3nc2O)CC1` [compound 565, N-((1r,4r)-4-aminocyclohexyl)-6-bromo-2-hydroxyquinoline-3-carboxamide] cannot be ordered by IC50: > 10 µM for the first, > 10 µM for the second.
